From ChEMBL document CHEMBL1156718, “Synthesis of novel aminoquinonoid analogues of diospyrin and evaluation of their inhibitory activity against murine and human cancer cells” (Eur J Med Chem, 2008)
Activity calls are given as the source filed them. The calls are words filed in the database; no cut-off is given here.

How the values were obtained:
A-375 = assay: Cytotoxicity against human A375 cells after 24 hrs by MTT assay; assay type: functional, cell-based; conditions: A-375, 24 h
Ehrlich [1] = assay: Antitumor activity against mouse Ehrlich ascites carcinoma cells xenografted in Swiss A mouse assessed as increase in life span at 1 mg/kg, ip administered five doses in alternate days relative to control; assay type: functional; conditions: route intraperitoneal
Mus musculus [2] = assay: Effect on serum LDH activity in Swiss A mouse xenografted with mouse Ehrlich ascites carcinoma cells assessed as LDH unit at 1 mg/kg, ip administered five doses in alternate days measured after 16 days relative to control; assay type: functional; design: unit not given here; conditions: route intraperitoneal
Mus musculus [3] = assay: Effect on alkaline phosphatase activity in Swiss A mouse xenografted with mouse Ehrlich ascites carcinoma cells assessed as umole of PNPP hydrolysed per minute per decilitre of serum at 1 mg/kg, ip administered five doses in alternate days measured after 16 days relative to control; assay type: functional; design: unit: umol/min/dL; conditions: route intraperitoneal
Ehrlich [4] = assay: Induction of apoptosis in mouse Ehrlich ascites carcinoma cells assessed as intracellular ROS generation after 1 hr; assay type: functional, cell-based
Ehrlich [5] = assay: Antitumor activity against mouse Ehrlich ascites carcinoma cells xenografted in Swiss A mouse assessed as increase in survival time at 1 mg/kg, ip administered five doses in alternate days; assay type: functional; design: unit not given here; conditions: route intraperitoneal
PBMC [6] = assay: Cytotoxicity against human PBMC cells after 24 hrs by MTT assay; assay type: cell-based
HEp-2 = assay: Cytotoxicity against human Hep2 cells after 24 hrs by MTT assay; assay type: functional, cell-based; conditions: HEp-2, 24 h
Ehrlich [7] = assay: Cytotoxicity against mouse Ehrlich ascites carcinoma cells after 24 hrs by MTT assay; assay type: functional, cell-based
Ehrlich [8] = assay: Antitumor activity against mouse Ehrlich ascites carcinoma cells xenografted in Swiss A mouse assessed as inhibition of tumor growth at 1 mg/kg, ip administered five doses in alternate days measured after 16 days; assay type: functional; design: unit not given here; conditions: route intraperitoneal
Ehrlich [9] = assay: Induction of apoptosis in mouse Ehrlich ascites carcinoma cells assessed as intracellular ROS generation at 0.4 uM after 1 hr by measuring increase in fluorescent intensity relative to control; assay type: functional
Ehrlich [10] = assay: Induction of apoptosis in mouse Ehrlich ascites carcinoma cells assessed as intracellular ROS generation at 0.4 uM after 1 hr by measuring increase in fluorescent intensity relative to control in presence of N-acetyl L-cysteine; assay type: functional, cell-based
PBMC [11] = assay: Selectivity ratio of IC50 for mouse Ehrlich ascites carcinoma to IC50 for human PBMC cells
PBMC [12] = assay: Selectivity ratio of IC50 for human A375 cells to IC50 for human PBMC cells
Ehrlich [13] = assay: Antitumor activity against mouse Ehrlich ascites carcinoma cells xenografted in Swiss A mouse assessed as restoration of lymphocyte infiltration and sinusoid dilation at 1 mg/kg, ip administered five doses in alternate days measured after 16 days by histopathological study relative to untreated control; assay type: functional, organism-based; design: dose 1 mg/kg
[14] = Toxicity in single ip dosed Swiss A mouse; assay type: organism-based; conditions: in vivo
Mus musculus [15] = assay: Toxicity in Swiss A mouse xenografted with mouse Ehrlich ascites carcinoma cells assessed as food and water intake at 1 mg/kg, ip administered five doses in alternate days measured after 16 days; assay type: organism-based; design: dose 1 mg/kg, route intraperitoneal; conditions: in vivo, 384 h
PBMC [16] = assay: Selectivity ratio of IC50 for human Hep2 cells to IC50 for human PBMC cells
A-431 = assay: Cytotoxicity against human A431 cells by MTT assay; assay type: functional, cell-based
HL-60 = assay: Cytotoxicity against human HL60 cells by MTT assay; assay type: functional, cell-based
K562 = assay: Cytotoxicity against human K562 cells by MTT assay; assay type: functional, cell-based
MCF7 = assay: Cytotoxicity against human MCF7 cells by MTT assay; assay type: functional, cell-based

| Structure (SMILES) | IC50 (A-375) [nM] | Activity (Ehrlich [1]) [%] | Activity (Mus musculus [2]) | Activity (Mus musculus [3]) | Activity (Ehrlich [4]) | Activity (Ehrlich [5]) | IC50 (PBMC [6]) [nM] | IC50 (HEp-2) [nM] | IC50 (Ehrlich [7]) [nM] | Activity (Ehrlich [8]) | LD50 [14] [mg/kg] | IC50 (A-431) [nM] | IC50 (HL-60) [nM] | IC50 (K562) [nM] | IC50 (MCF7) [nM] | other results |
| --- | --- | --- | --- | --- | --- | --- | --- | --- | --- | --- | --- | --- | --- | --- | --- | --- |
| COc1cc(C)cc2c1C(=O)C=C(c1c(C)cc3c(c1OC)C(=O)C(N)=CC3=O)C2=O | 3240 | 72 | 34.7 | 4.4 | Dose-dependent effect | 31.5 | > 100000 | 3510 | 350 | 3.4 |  |  |  |  |  |  |
| CCOC(=O)CNC1=CC(=O)c2cc(C)c(C3=CC(=O)c4c(OC)cc(C)cc4C3=O)c(OC)c2C1=O | 570 | 81 | 24.6 | 5.9 | Dose-dependent effect | 34.9 | 96200 | 860 | 90 | 2.3 |  |  |  |  |  | Activity (Ehrlich [9]): 9; Activity (Ehrlich [10]): inactive |
| COc1cc(C)cc2c1C(=O)C(N)=C(c1c(C)cc3c(c1OC)C(=O)C(N)=CC3=O)C2=O | 1930 | 62 | 37.5 | 4.9 |  | 30 | 40600 | 2340 | 370 | 3.9 |  |  |  |  |  |  |
| COc1cc(C)cc2c1C(=O)C=C(c1c(C)cc3c(c1OC)C(=O)C(NC(C)=O)=CC3=O)C2=O | 60 | 93 | 26.3 | 5.5 |  | 35.7 | 86500 | 920 | 60 | 3.3 | > 60 |  |  |  |  | Activity (Ehrlich [9]): 9; Selectivity ratio (PBMC [11]): 100; Activity (Ehrlich [10]): inactive; Selectivity ratio (PBMC [12]): 100; Activity (Ehrlich [13]): Active; Activity (Mus musculus [15]): Non-toxic; Selectivity ratio (PBMC [16]): 100 |
| COc1cc(C)cc2c1C(=O)C=C(c1c(C)cc3c(c1OC)C(=O)C(Nc1ccc4ccccc4c1)=CC3=O)C2=O | 80 | 67 | 23.5 | 5.4 | Dose-dependent effect | 34 | 73800 | 2040 | 240 | 2.9 |  |  |  |  |  |  |
| COc1cc(C)cc2c1C(=O)C=C(c1c(C)cc3c(c1OC)C(=O)C=CC3=O)C2=O |  | 57 | 25.5 | 4.9 |  | 29.8 |  |  |  | 2.9 | 45 | 28200 | 64100 | > 100000 | 46400 |  |
| Cc1cc(O)c2c(c1)C(=O)C(c1c(C)cc3c(c1O)C(=O)C=CC3=O)=CC2=O [DIOSPYRIN] |  | 36 | 16.3 | 3.7 |  | 23.2 |  |  |  | 4.3 | 25 | 65300 | > 100000 | > 100000 | 74800 |  |
| COc1cc(C)cc2c1C(=O)C=C(c1c(C)cc3c(c1OC)C(=O)C(Nc1ccc(Cl)cc1)=CC3=O)C2=O | 630 | 69 | 25.5 | 6.4 | Dose-dependent effect | 34.3 | 44900 | 650 | 250 | 2.7 |  |  |  |  |  |  |
| CCOc1cc(C)cc2c1C(=O)C=C(c1c(C)cc3c(c1OCC)C(=O)C=CC3=O)C2=O |  |  |  |  |  |  |  |  |  |  |  | 15900 | 30100 | 40200 | 19000 |  |
| COc1cc(C)cc2c1C(=O)C=C(c1c(C)cc3c(c1OC)C(=O)C(NCc1ccccc1)=CC3=O)C2=O | 550 | 47 | 31.8 | 3.1 | Dose-dependent effect | 28.4 | > 100000 | 2610 | 1410 | 3 |  |  |  |  |  |  |
